Experiment: Development form properties of the free compound and the complex (hygroscopicity, stability)

| Molecule | hygroscopic properties (free compound, background statement) | stability in comparison to the free compound |
| --- | --- | --- |
| CCOc1ccc(Cc2cc(C34OC[C@](CO)(O3)C(O)[C@H](O)C4O)ccc2Cl)cc1F (stereo in doubt) [1,6-anhydro-1-C-{4-chloro-3-[(3-fluoro-4-ethoxyphenyl)methyl]phenyl}-5-C-(hydroxymethyl)-β-L-idopyranose] | hygroscopic |  |
| 1,6-anhydro-1-C-{4-chloro-3-[(3-fluoro-4-ethoxyphenyl)methyl]phenyl}-5-C-(hydroxymethyl)-β-L-idopyranose L-proline complex [complex of formula (I)] |  | improved stability |
